This note sets out measurements from US10829500B2, “Pyridyl-triazabicycles” (Hoffmann-La Roche Inc., priority 2014, dated 2020).

The target in the test is BACE1 (Homo sapiens (Human), UniProt P56817). The test is described as follows: Cellular Aβ-lowering assay (Abeta 40 AlphaLISA) in HEK293 APP cells. The class given is cell-based. Particulars: Aβ 40 in culture supernatant after 18-20 hrs incubation. The protocol: Cellular Aβ-Lowering Assay:
The Abeta 40 AlphaLISA Assay can be used. The HEK293 APP cells were seeded in 96 well Microtiter plates in cell culture medium (Iscove's, plus 10% (v/v) fetal bovine serum, penicillin/streptomycin) to about 80% confluency and the compounds were added at a 3× concentration in ⅓ volume of culture medium (final DMSO concentration was kept at 1% v/v). After 18-20 hrs incubation at 37° C. and 5% CO2 in a humidified incubator, the culture supernatants were harvested for the determination of Aβ 40 concentrations using Perkin-Elmer Human Amyloid beta 1-40 (high specificity) Kit (Cat # AL275C).
In a Perkin-Elmer White Optiplate-384 (Cat #6007290), 2 ul culture supernatants were combined with 2 μl of a 10× AlphaLISA Anti-hAβAcceptor beads+Biotinylated Antibody Anti-Aβ 1-40 Mix (50 μg/mL/5 nM). After 1 hour room temperature incubation, 16 μl of a 1.25× preparation of Streptavidin (SA) Donor beads (25 μg/mL) were added and incubated for 30 minutes in the Dark. Light Emission at 615 nm was then recorded using EnVision-Alpha Reader. Levels of A β 40 in the culture supernatants were calculated as percentage of maximum signal (cells treated with 1% DMSO without inhibitor). The IC50 values were calculated using the Excel XLfit software.
In general terms: Alpha assays give light when donor and acceptor beads are brought close together.

Structures are written as SMILES.

Chain of BACE1 (P56817 46-501): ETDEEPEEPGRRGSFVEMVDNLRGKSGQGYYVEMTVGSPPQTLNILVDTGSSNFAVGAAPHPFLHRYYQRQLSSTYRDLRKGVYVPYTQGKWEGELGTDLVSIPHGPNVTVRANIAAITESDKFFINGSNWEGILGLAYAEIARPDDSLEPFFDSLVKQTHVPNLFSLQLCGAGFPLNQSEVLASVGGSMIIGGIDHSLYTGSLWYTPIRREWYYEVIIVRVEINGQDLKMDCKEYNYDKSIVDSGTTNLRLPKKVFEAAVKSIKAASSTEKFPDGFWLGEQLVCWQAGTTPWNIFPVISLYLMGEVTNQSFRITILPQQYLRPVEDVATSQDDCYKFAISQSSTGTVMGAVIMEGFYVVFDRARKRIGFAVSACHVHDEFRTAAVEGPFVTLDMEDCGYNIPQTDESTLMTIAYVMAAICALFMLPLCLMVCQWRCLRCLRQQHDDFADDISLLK

Molecule `Cc1cc(C#N)cnc1C(=O)Nc1ccc(F)c([C@]2(C)C[S@@]3(=O)=NCCCCN3C(N)=N2)n1` [Example 3] gave a half-inhibitory concentration (IC50) of 36 nM. The value for `N#Cc1ccc(C(=O)Nc2ccc(F)c([C@]3(CF)C[S@@]4(=O)=NCCCCN4C(N)=N3)n2)nc1` [Example 5, N-[6[(1R,10S)-8-Amino-10-(fluoromethyl)-1-oxo-1λ^6-thia-2,7,9-triazabicyclo[5.4.0]undeca-1,8-dien-10-yl]-5-fluoropyridin-2-yl]-5-cyanopyridine-2-carboxamide] was 28 nM. The value for `N#Cc1ccc(C(=O)Nc2ccc(F)c([C@]3(CF)C[S@]4(=O)=NCCCCN4C(N)=N3)n2)nc1` [Example 4, N-[6-[(1S,10S)-8-Amino-10-(fluoromethyl)-1-oxo-1λ^6-thia-2,7,9-triazabicyclo[5.4.0]undeca-1,8-dien-10-yl]-5-fluoropyridin-2-yl]-5-cyanopyridine-2-carboxamide] was 96 nM. For the molecule `C[C@@]1(c2nc(NC(=O)c3ccc(C#N)cn3)ccc2F)CS2(=O)=NCCCCN2C(N)=N1` (stereo in doubt) [Example 2, 5-Cyano-pyridine-2-carboxylic acid [6-((3R,4aS)-1-amino-3-methyl-4a-oxo-3,4,6,7,8,9-hexahydro-4aλ^6-thia-2,5,9a-triaza-benzocyclohepten-3-yl)-5-fluoro-pyridin-2-yl]-amide], the midpoint of inhibition, the IC50, lay at 49 nM. The value for `C[C@@]1(c2nc(NC(=O)c3ccc(C#N)cn3)ccc2F)CS2(=O)=NCCCCN2C(N)=N1` (stereo in doubt) [Example 1, 5-Cyano-pyridine-2-carboxylic acid [6-((3R,4aR)-1-amino-3-methyl-4a-oxo-3,4,6,7,8,9-hexahydro-4aλ^6-thia-2,5,9a-triaza-benzocyclohepten-3-yl)-5-fluoro-pyridin-2-yl]-amide] was 86 nM.

One may read the IC50 as the concentration at which inhibition is half-maximal.
